Earlier results in patent US20230285429A1, “CANNABINOID ACID FORMULATIONS, DELIVERY SYSTEMS, AND METHODS OF USE” (Flora Growth U.S. Holdings Corp., priority 2022, published 2023).

Tested on: pseudovirus expressing the spike protein
Details: human epithelial cell lines, CBGA or CBDA individually

| Compound | infection by pseudovirus expressing the spike protein |
| --- | --- |
| C=C(C)[C@@H]1CCC(C)=C[C@H]1c1c(O)cc(CCCCC)c(C(=O)O)c1O [CBDA, cannabidiolic acid] | reduce infection |
| CCCCCc1cc(O)c(C/C=C(\C)CCC=C(C)C)c(O)c1C(=O)O [CBGA, cannabigerolic acid] | reduce infection |
